Data set [1] can be described thus: Metabolic stability in mouse liver microsomes assessed as clearance at 1 uM incubated for 15 to 30 mins in presence of NADPH generating system by LC-MS/MS analysis. The class given is ADME, Microsome. The following applies: time 15-30 min, read-out: CLH.
The subject of the next data set is GFI1 mRNA. Briefly: Hematological toxicity in human TF-1a cells assessed as fold increase in GFI1 mRNA expression at 10 uM incubated for 1 day by RT-qPCR analysis relative to control. The following applies: read-out: FC. It counts as cell-based. On the technique in general: In qPCR the cycle at which signal appears reflects the starting amount.
In the next data set the target is LSD1/CoREST complex (Homo sapiens, UniProt O60341). Briefly: Inhibition of recombinant human LSD1 (172 to 852 residues)/His-tagged human CoREST (286 to 482 residues) expressed in Escherichia coli BL21 (DE3) cells using ART(mK)QTARKSTGGKAPRKQLAGGK-Biotin as substrate assessed as increase in H3K4 methylation incubated for 40 mins.
In data set [2] the target is Lysine-specific histone demethylase 1A (Homo sapiens, UniProt O60341). Briefly: Inhibition of LSD1 (unknown origin).
The nature of data set [3]: Toxicity in ICR mouse assessed as reduction in platelet count upto 100 mg/kg/day, po administered for 4 days. It counts as organism-based. The following applies: in vivo, 96 h, time 4 day.
The nature of data set [4]: Toxicity in ICR mouse assessed as reduction in white blood cell count upto 100 mg/kg/day, po administered for 4 days. Conditions: in vivo, 96 h, time 4 day. The class given is organism-based.
A short description of data set [5]: Toxicity in ICR mouse assessed as reduction in red blood cell count upto 100 mg/kg/day, po administered for 4 days. It counts as organism-based. Conditions: in vivo, 96 h, time 4 day.
A short description of data set [6]: AUC (0 to 24 hrs) in ICR mouse at 10 mg/kg, po. The class given is ADME, organism-based. Further details: dose 10 mg/kg, route po. Conditions: in vivo.
For data set [7], the system named is Mus musculus. In words: Improvement of recognition memory in NR1 hypofunction mouse assessed as novelty discrimination index at 0.3 mg/kg, po administered once daily for 2 weeks by novel object recognition test (reference value: 51.4 +/- 3.1%). It counts as functional.
Data set [8] relates to Mus musculus. Briefly: Improvement of recognition memory in NR1 hypofunction mouse assessed as novelty discrimination index at 1 mg/kg, po administered once daily for 2 weeks by novel object recognition test (reference value: 51.4 +/- 3.1%). The class given is functional.

15 compounds from ChEMBL document CHEMBL5338709, “Design, synthesis, and structure-activity relationship of TAK-418 and its derivatives as a novel series of LSD1 inhibitors with lowered risk of hematological side effects” (Eur J Med Chem, 2022) can be followed below.

What is called IC50 is the concentration at which inhibition is half-maximal. Broadly, the AUC(0-t) is exposure summed from dosing to a finite time, without extrapolation to infinity. A higher AUC(0-t) goes with high exposure.

Where only a bound is given, the exact number is not on record here.

On to `O=C(Nc1cccnc1)c1cccc([C@@H]2C[C@H]2NCC2CC2)c1` (racemic), for which, in data set [1], the microsomal CLint at 1 µM was 47 µL/min/mg. For the same compound, the fold induction at 24 h, 10 µM in the data set on GFI1 mRNA amounted to 1.53. Further, the IC50 on LSD1/CoREST complex was 160 nM.
Take `CN(C(=O)c1cccc([C@@H]2C[C@H]2NCC2CC2)c1)c1ccccc1` (racemic): the fold induction at 24 h, 10 µM with GFI1 mRNA came to 9.6. Besides, the IC50 on LSD1/CoREST complex is 860 nM.
Turning to `O=C(NC1CCOCC1)c1csc([C@@H]2C[C@H]2NCC2CC2)c1` (racemic), the microsomal CLint at 1 µM in data set [1] stood at 13 µL/min/mg.
With `O=C(Nc1ccc([C@@H]2C[C@H]2NCC2CC2)cc1)c1ccccc1` (racemic), in the data set on GFI1 mRNA, the fold induction at 24 h, 10 µM was 10.7. This compound gave an IC50 in data set [2] of 1.4 nM.
Consider `O=C(Nc1ccccc1)c1ccccc1[C@@H]1C[C@H]1NCC1CC1` (racemic), for which the IC50 on LSD1/CoREST complex is more than 10000 nM.
Turning to `Cc1nnc(NC(=O)c2cccc([C@@H]3C[C@H]3NCC3CC3)c2)s1` (racemic), the microsomal CLint at 1 µM in [1] turned out to be 10 µL/min/mg.
Turning to `O=C(Nc1ccccc1)c1cccc([C@@H]2C[C@H]2NCC2CC2)c1` (racemic), in data set [1], the microsomal CLint at 1 µM is 101 µL/min/mg. The fold induction at 24 h, 10 µM in the data set on GFI1 mRNA is 1.97. The IC50 on LSD1/CoREST complex was determined as 82 nM.
`O=C(Nc1ccccc1)c1ccc([C@@H]2C[C@H]2NCC2CC2)cc1` (racemic): the fold induction at 24 h, 10 µM in the data set with GFI1 mRNA came out at 10.6. In data set [2], the IC50 was 1 nM.
Turning to `Cc1nnc(NC(=O)c2csc([C@@H]3C[C@H]3NCC3CC3)c2)s1` (racemic), the microsomal CLint at 1 µM in data set [1] stood at 26 µL/min/mg.
As to `Cc1nnc(NC(=O)c2cccc([C@@H]3C[C@H]3NCC3CC3)c2)s1`, the Activity result in data set [3], in data set [4] and in data set [5] was “Non-Toxic” in each case.
`O=C(NC1CCOCC1)c1csc([C@@H]2C[C@H]2NCC2CC2)c1` returned an area under the curve AUC(0-t) in [6] of 1050 ng·h/mL. For the same compound, the Activity was found to be 62.7% in the data set on Mus musculus [7] and 66% in the data set on Mus musculus [8].
Turning to `O=C(NC1CCC(F)(F)CC1)c1cccc([C@@H]2C[C@H]2NCC2CC2)c1` (racemic), the microsomal CLint at 1 µM in data set [1] was 26 µL/min/mg.
As for `Cc1nnc(NC(=O)c2cc([C@@H]3C[C@H]3NCC3CC3)cs2)s1` (racemic), the microsomal CLint at 1 µM in data set [1] is 15 µL/min/mg.
In the case of `O=C(Nc1cccc([C@@H]2C[C@H]2NCC2CC2)c1)c1ccccc1` (racemic), the fold induction at 24 h, 10 µM in the data set on GFI1 mRNA worked out at 3.51. Moreover, the IC50 on LSD1/CoREST complex came out at 1800 nM.
As for `O=C(NC1CCOCC1)c1cccc([C@@H]2C[C@H]2NCC2CC2)c1` (racemic), the microsomal CLint at 1 µM in data set [1] was 11 µL/min/mg.
